{"source": "patent US10770169B2", "about": "“Method of providing a treatment to a subject based on a dynamic pathway map” (THE REGENTS OF THE UNIVERSITY OF CALIFORNIA, priority 2010, dated 2020)", "test_system": "panel of 55 breast cancer cell lines", "assay": "Cell growth inhibition assay (Cell Titer Glo, 72 h, 9 doses; GI50, TGI, LC50)", "format": "cell-based, human", "settings": "for GI50: value is the negative log10 of mol/L"}
{"smiles": "COc1ccc(C2=N[C@@H](c3ccc(Cl)cc3)[C@@H](c3ccc(Cl)cc3)N2C(=O)N2CCNC(=O)C2)c(OC(C)C)c1", "note": "[Nutlin 3a]", "values": [{"measurement": "GI50", "setting": "cell line 600MPE", "value": 4.32}, {"measurement": "GI50", "setting": "cell line AU565, censored GI50 values", "value": 4.79}, {"measurement": "GI50", "setting": "cell line AU565", "value": 4.79}, {"measurement": "GI50", "setting": "cell line BT20, censored GI50 values", "value": 4.47}, {"measurement": "GI50", "setting": "cell line BT20", "value": 4.47}, {"measurement": "GI50", "setting": "cell line BT474, censored GI50 values", "value": 4.39}, {"measurement": "GI50", "setting": "cell line BT474", "value": 4.39}, {"measurement": "GI50", "setting": "cell line BT483, censored GI50 values", "value": 5.19}, {"measurement": "GI50", "setting": "cell line BT483", "value": 5.19}, {"measurement": "GI50", "setting": "cell line BT549", "value": 4.35}, {"measurement": "GI50", "setting": "cell line CAMA1", "value": 4.30}, {"measurement": "GI50", "setting": "cell line HCC38, censored GI50 values", "value": 4.66}, {"measurement": "GI50", "setting": "cell line HCC38", "value": 4.66}, {"measurement": "GI50", "setting": "cell line HCC70, censored GI50 values", "value": 4.73}, {"measurement": "GI50", "setting": "cell line HCC70", "value": 4.73}, {"measurement": "GI50", "setting": "cell line HCC202, censored GI50 values", "value": 5.02}, {"measurement": "GI50", "setting": "cell line HCC202", "value": 5.02}, {"measurement": "GI50", "setting": "cell line HCC1143, censored GI50 values", "value": 4.67}, {"measurement": "GI50", "setting": "cell line HCC1143", "value": 4.67}, {"measurement": "GI50", "setting": "cell line HCC1187, censored GI50 values", "value": 4.68}, {"measurement": "GI50", "setting": "cell line HCC1187", "value": 4.68}, {"measurement": "GI50", "setting": "cell line HCC1395, censored GI50 values", "value": 4.65}, {"measurement": "GI50", "setting": "cell line HCC1395", "value": 4.65}, {"measurement": "GI50", "setting": "cell line HCC1419, censored GI50 values", "value": 4.39}, {"measurement": "GI50", "setting": "cell line HCC1419", "value": 4.39}, {"measurement": "GI50", "setting": "cell line HCC1428, censored GI50 values", "value": 4.50}, {"measurement": "GI50", "setting": "cell line HCC1428", "value": 4.50}, {"measurement": "GI50", "setting": "cell line HCC1500, censored GI50 values", "value": 4.57}, {"measurement": "GI50", "setting": "cell line HCC1500", "value": 4.57}, {"measurement": "GI50", "setting": "cell line HCC1806", "value": 4.29}, {"measurement": "GI50", "setting": "cell line HCC1937, censored GI50 values", "value": 4.63}, {"measurement": "GI50", "setting": "cell line HCC1937", "value": 4.63}, {"measurement": "GI50", "setting": "cell line HCC1954, censored GI50 values", "value": 4.76}, {"measurement": "GI50", "setting": "cell line HCC1954", "value": 4.76}, {"measurement": "GI50", "setting": "cell line HCC2185, censored GI50 values", "value": 4.81}, {"measurement": "GI50", "setting": "cell line HCC2185", "value": 4.81}, {"measurement": "GI50", "setting": "cell line HCC3153, censored GI50 values", "value": 4.44}, {"measurement": "GI50", "setting": "cell line HCC3153", "value": 4.44}, {"measurement": "GI50", "setting": "cell line LY2, censored GI50 values", "value": 5.35}, {"measurement": "GI50", "setting": "cell line LY2", "value": 5.35}, {"measurement": "GI50", "setting": "cell line MCF7, censored GI50 values", "value": 5.24}, {"measurement": "GI50", "setting": "cell line MCF7", "value": 5.24}, {"measurement": "GI50", "setting": "cell line MDAMB134V", "value": 4.76}, {"measurement": "GI50", "setting": "cell line MDAMB134VI, censored GI50 values", "value": 4.76}, {"measurement": "GI50", "setting": "cell line MDAMB157, censored GI50 values", "value": 4.45}, {"measurement": "GI50", "setting": "cell line MDAMB157", "value": 4.45}, {"measurement": "GI50", "setting": "cell line MDAMB175V", "value": 5.08}, {"measurement": "GI50", "setting": "cell line MDAMB175VII, censored GI50 values", "value": 5.08}, {"measurement": "GI50", "setting": "cell line MDAMB231", "value": 4.18}, {"measurement": "GI50", "setting": "cell line MDAMB361", "value": 4.23}, {"measurement": "GI50", "setting": "cell line MDAMB415, censored GI50 values", "value": 4.59}, {"measurement": "GI50", "setting": "cell line MDAMB415", "value": 4.59}, {"measurement": "GI50", "setting": "cell line MDAMB436", "value": 4.30}, {"measurement": "GI50", "setting": "cell line MDAMB453", "value": 4.32}, {"measurement": "GI50", "setting": "cell line MDAMB468, censored GI50 values", "value": 4.44}, {"measurement": "GI50", "setting": "cell line MDAMB468", "value": 4.44}, {"measurement": "GI50", "setting": "cell line SKBR3", "value": 4.32}, {"measurement": "GI50", "setting": "cell line SUM52PE, censored GI50 values", "value": 4.73}, {"measurement": "GI50", "setting": "cell line SUM52PE", "value": 4.73}, {"measurement": "GI50", "setting": "cell line SUM149PT, censored GI50 values", "value": 4.56}, {"measurement": "GI50", "setting": "cell line SUM149PT", "value": 4.56}, {"measurement": "GI50", "setting": "cell line SUM159PT, censored GI50 values", "value": 4.78}, {"measurement": "GI50", "setting": "cell line SUM159PT", "value": 4.78}, {"measurement": "GI50", "setting": "cell line SUM185PE, censored GI50 values", "value": 4.54}, {"measurement": "GI50", "setting": "cell line SUM185PE", "value": 4.54}, {"measurement": "GI50", "setting": "cell line SUM225CWN, censored GI50 values", "value": 4.69}, {"measurement": "GI50", "setting": "cell line SUM225CWN", "value": 4.69}, {"measurement": "GI50", "setting": "cell line SUM1315MO2, censored GI50 values", "value": 4.67}, {"measurement": "GI50", "setting": "cell line SUM1315MO", "value": 4.67}, {"measurement": "GI50", "setting": "cell line T47D, censored GI50 values", "value": 4.51}, {"measurement": "GI50", "setting": "cell line T47D", "value": 4.51}, {"measurement": "GI50", "setting": "cell line UACC812, censored GI50 values", "value": 4.45}, {"measurement": "GI50", "setting": "cell line UACC812", "value": 4.45}, {"measurement": "GI50", "setting": "cell line UACC893, censored GI50 values", "value": 4.69}, {"measurement": "GI50", "setting": "cell line UACC893", "value": 4.69}, {"measurement": "GI50", "setting": "cell line ZR75B, censored GI50 values", "value": 5.69}, {"measurement": "GI50", "setting": "cell line ZR75B", "value": 5.69}, {"measurement": "GI50", "setting": "cell line ZR751, censored GI50 values", "value": 5.51}, {"measurement": "GI50", "setting": "cell line ZR751", "value": 5.51}]}
{"smiles": "COc1cccc(-c2cc(=O)c3ccccc3o2)c1N", "note": "[PD 98059]", "values": [{"measurement": "GI50", "setting": "AU565 cell line, censored GI50 values", "value": 5.12}, {"measurement": "GI50", "setting": "CAMA1 cell line, censored GI50 values", "value": 4.65}, {"measurement": "GI50", "setting": "HCC1187 cell line, censored GI50 values", "value": 5.56}, {"measurement": "GI50", "setting": "HCC1937 cell line, censored GI50 values", "value": 4.50}, {"measurement": "GI50", "setting": "cell line 600MPE", "value": 4.30}, {"measurement": "GI50", "setting": "cell line AU565", "value": 5.12}, {"measurement": "GI50", "setting": "cell line BT20", "value": 4.04}, {"measurement": "GI50", "setting": "cell line BT474", "value": 4.00}, {"measurement": "GI50", "setting": "cell line BT483", "value": 4.12}, {"measurement": "GI50", "setting": "cell line CAMA1", "value": 4.65}, {"measurement": "GI50", "setting": "cell line HCC70", "value": 4.30}, {"measurement": "GI50", "setting": "cell line HCC1143", "value": 4.00}, {"measurement": "GI50", "setting": "cell line HCC1187", "value": 5.56}, {"measurement": "GI50", "setting": "cell line HCC1395", "value": 4.00}, {"measurement": "GI50", "setting": "cell line HCC1419", "value": 4.20}, {"measurement": "GI50", "setting": "cell line HCC1428", "value": 4.12}, {"measurement": "GI50", "setting": "cell line HCC1806", "value": 4.30}, {"measurement": "GI50", "setting": "cell line HCC1937", "value": 4.50}, {"measurement": "GI50", "setting": "cell line HCC1954", "value": 4.30}, {"measurement": "GI50", "setting": "cell line HCC2185", "value": 4.55}, {"measurement": "GI50", "setting": "cell line MDAMB134V", "value": 4.12}, {"measurement": "GI50", "setting": "cell line MDAMB175V", "value": 4.24}, {"measurement": "GI50", "setting": "cell line MDAMB361", "value": 4.30}, {"measurement": "GI50", "setting": "cell line MDAMB468", "value": 4.32}, {"measurement": "GI50", "setting": "cell line SKBR3", "value": 4.73}, {"measurement": "GI50", "setting": "cell line SUM52PE", "value": 4.92}, {"measurement": "GI50", "setting": "cell line SUM149PT", "value": 4.44}, {"measurement": "GI50", "setting": "cell line SUM159PT", "value": 4.30}, {"measurement": "GI50", "setting": "cell line SUM185PE", "value": 4.88}, {"measurement": "GI50", "setting": "cell line SUM225CWN", "value": 4.42}, {"measurement": "GI50", "setting": "cell line SUM1315MO", "value": 4.30}, {"measurement": "GI50", "setting": "cell line T47D", "value": 4.30}, {"measurement": "GI50", "setting": "cell line UACC812", "value": 4.27}, {"measurement": "GI50", "setting": "cell line ZR75B", "value": 4.00}, {"measurement": "GI50", "setting": "cell line ZR751", "value": 4.32}]}
{"smiles": "O=C(Nc1cc(Cl)cc2c1[nH]c1cnccc12)c1cccnc1", "note": "[PS1145]", "values": [{"measurement": "variability in cell line response", "setting": "across the cell line panel", "value": "variability in cell line response was minimal"}]}
